This is an account of results in US10722580B2, “Compositions and methods for treatment and prevention of uropathogenic E. coli infection” (UNIVERSITY OF WASHINGTON, priority 2015, dated 2020).

In one assay the test system is Klebsiella fimbrial FimH. Kind of assay: Binding of anti-E. coli FimH antibodies to Klebsiella fimbrial FimH. The note with it: FimH^wt and FimH^S62A, 50 and 5 μg/ml mAb (FIG. 9). More on the design: species or system Klebsiella pneumoniae. As for the experimental part: FIG. 9. Recognition of Klebsiella FimH by anti-E. coli FimH antibodies. […] Type 1 fimbriae carrying different FimH variants (FimH^wt and FimH^S62A mutant) were incubated with different concentrations of mAbs (50 and 5 μg/ml). Data shown are mean±SD of duplicates from one representative experiment.

Assay [1] deals with E. coli CFT073. Briefly: Passive and active immunization, non-diabetic mice, bacterial load in urine. Type of assay: in vivo. As for the experimental part: (§1) The intraperitoneal injection was completed 1 day prior and 1 day after challenge with CFT073 E. coli (A07 Study for Vaccine candidate, Contract #HHSN2722010000401, Task Order #HHSN27200005, Galveston). […] Mixtures of antibodies for passive transfer were prepared as 150 μg per mouse doses in 50 μl volumes of sterile HBS. The effect of the antibodies was evaluated in two mice models that included non-diabetic and diabetic C57BI/6 mice, respectively. Mice injected with incomplete Freund's adjuvant only (IFA) were used as the control (mock) group in each model. Bacterial load in mice urine was analyzed daily over 14-days' time period starting 24 h after bacterial challenge.
Diabetic state in C57BI/6 mice was induced by the 4 days-treatment with streptozotocin (STZ) by intraperitoneal injection. Groups of 100 C57BI/6 mice were randomly divided into 5 groups of ten for diabetic and for non-diabetic states respectively. […] Mice were challenged with CFT073 UPEC strain (1×10^6 cfu/50 μl per mouse) via intraurethral catheterization under isoflurane anesthesia. Bacterial load in mice urine was analyzed daily over 14-days' time starting 24 h after bacterial challenge. Genomic bacterial load was quantified in each urine sample (10 μl) by qPCR. Statistical analysis of the data was performed using the Generalized Estimating Equation model (GEE) (xtgee command in STATA software, StataCorp. 2015. Stata Statistical Software: Release 14. College Station, Tex.: StataCorp LP). Overall, 1400 observations were made for 100 mice over 14 days. Out of 1,400 total 237 observations were missing (no urine provided) and were excluded from subsequent analysis. The mice ID were set as a panel variable, treatment type and days as predictor variables with interaction allowed between them; and E. coli counts as an outcome variable. […] For log10 transformation, zero counts (E. coli not detected) were replaced with value 1. […] After exclusion of outliers, 617 (out of initial 673, 91.6%) observations were analyzed using same model.

Assay [2] has as its system E. coli UTI89. Briefly: Detachment of 16 h-old biofilm on mannan-coated surface. In kind it is cell-based. The settings on record: for effect on detachment of pre-formed biofilm: 1% mannose or 50 μg/ml mAb (FIG. 7B). The method, then: (§2) Microtiter 96-well plates were coated with 20 μg/mL of yeast mannan or RNaseB (Sigma-Aldrich) in 0.02 M NaHCO3 buffer at pH 9.6. Bacterial strains grown overnight in 3 ml LB media were spun and washed 1× with minimal essential media (MEM, Difco). […] After washing with PBS, formed biofilms were stained with 0.1% (v/v) crystal violet (Becton Dickinson) as described above for bacterial adhesion assay. […] The wells were washed 3 times with PBS and stain for biofilm detection as described above.

The test system of assay [3] is E. coli UTI89. Briefly: Biofilm formation on mannan-coated surface. Type of assay: cell-based. The note with it: 1% mannose or 50 μg/ml mAb added prior to growth (FIG. 7A). The method, then: as §2
In another assay the test system is FimH^wt:(186-201)FocH. Briefly: Cross-interference of inhibitory mAbs binding to FimH. On the set-up: species or system E. coli. The note with it: FimH pre-incubated with antibody, biotinylated mAb binding (FIG. 16). The method, then: FIG. 16. Inhibitory mAbs interfere with each other's binding to FimH. […] The data shown are mean±SD of triplicates from one representative experiment of multiple experiments that were performed with similar settings.

Assay [4] deals with E. coli UTI89. Kind of assay: Mouse bladder infection, transurethral inoculation of mAb-pretreated bacteria. The note with it: C57BL/6 mice, 24 h post infection, bacteria pretreated with 500 μg/ml mAb 1 h. Type of assay: in vivo. As for the experimental part: Infection of 10- to 11-week-old C57BL/6 female mice was performed as described elsewhere (Kisiela, et al. 2013). Briefly, bacteria were grown in LB medium without shaking for 48 h, harvested, washed twice in PBS and resuspended in PBS at a final concentration of 10^8 CFU per ml. Bacteria were pretreated with 500 μg/ml mAbs for 1 h at 37° C. prior to inoculation. Mice were anesthetized with ketamine/xylazine and twenty-five microliters of mAb-pretreated bacteria in PBS were inoculated transurethrally into mouse bladders via catheter. After 24 h, mice were sacrificed and bladders were aseptically removed and homogenized in 1 mL PBS. Serial dilutions were plated and total bacterial load per bladder was calculated. Statistical significance was determined using two-tailed Mann-Whitney test (GraphPad Prism 6.0 software, La Jolla, Ca).

The test system of assay [5] is Klebsiella pneumoniae. Briefly: Inhibition of Klebsiella adhesion to surface-immobilized RNaseB. In kind it is cell-based. The note with it: 50 μg/ml mAb (FIG. 10). The method, then:
FIG. 10. […] Data are mean±SD (n=2 independent experiments).
(§3) Microtiter 96-well plates were coated with 20 μg/ml of yeast mannan or RNaseB (Sigma-Aldrich) in 0.02 M NaHCO3 buffer at pH 9.6. The wells were quenched with 0.2% bovine serum albumin (BSA, Sigma-Aldrich) in PBS for 20 min. Bacteria expressing FimH adhesin (OD=1 or OD=2) were first preincubated with different concentrations of mAbs for 1 h at 37° C. and then allowed to adhere to ligand-coated surface for another 1 h. After an extensive washing with PBS, plates were dried and bound bacteria were stained with 0.1% crystal violet (Becton Dickinson) for 20 min at room temperature (RT). The wells were washed with water and 50% ethanol was added to the wells. The absorbance was measured at 600 nm.

Assay [6] deals with FimH^wt-expressing E. coli. Briefly: Inhibition of bacterial adhesion to surface-immobilized yeast mannan. In kind it is cell-based. As for the experimental part: as §3
The subject of assay [7] is Klebsiella pneumoniae. Kind of assay: Detachment of 14 h-old Klebsiella biofilm. Type of assay: cell-based. The settings on record: 14-h-old biofilm, 1% mannose or 50 μg/ml mAb (FIG. 11B). As for the experimental part:
(§4) FIG. 11. […] Data (mean±SD, n=3 independent experiments). […] Data (mean±SD, n=3 independent experiments). Biofilm was quantified using the crystal violet staining method. *, P≤0.05, **, P≤0.0005 (one sample t-test).
as §2

The test system of assay [8] is Klebsiella pneumoniae. Briefly: Klebsiella biofilm formation on RNaseB-coated surfaces. Type of assay: cell-based. The settings on record: two Klebsiella FimH variants, 1% mannose or 50 μg/ml mAb (FIG. 11A). The method, then: as §4, §2
Assay [9] concerns E. coli CFT073. Briefly: Passive and active immunization, diabetic mice, bacterial load in urine. In kind it is in vivo. The note with it: diabetic (STZ) mice; mAb 150 μg i.p. or LD antigen 15 μg s.c. As for the experimental part:
as §1
Diabetic state in C57BI/6 mice was induced by the 4 days-treatment with streptozotocin (STZ) by intraperitoneal injection. Groups of 100 C57BI/6 mice were randomly divided into 5 groups of ten for diabetic and for non-diabetic states respectively. […] Bacterial load in mice urine was analyzed daily over 14-days' time starting 24 h after bacterial challenge. Genomic bacterial load was quantified in each urine sample (10 μl) by qPCR. […] For log10 transformation, zero counts (E. coli not detected) were replaced with value 1. […] After exclusion of outliers, 617 (out of initial 673, 91.6%) observations were analyzed using same model.

Sequence of FimH^wt:(186-201)FocH (P08191 22-179 limits assumed): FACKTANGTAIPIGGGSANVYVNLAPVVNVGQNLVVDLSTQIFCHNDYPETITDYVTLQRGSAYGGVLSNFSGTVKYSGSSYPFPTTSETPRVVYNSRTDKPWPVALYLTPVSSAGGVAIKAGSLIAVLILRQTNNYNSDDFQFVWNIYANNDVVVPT

For “mAb926: mouse monoclonal anti-FimH antibody, VL SEQ ID NO: 3, VH SEQ ID NO: 4; non-competitive parasteric inhibitor”, the “binding to Klebsiella FimH compared with E. coli FimH” value in the assay with Klebsiella fimbrial FimH is “same level of binding to both FimH adhesins”. Further, in the assay on E. coli CFT073 [1] (non-diabetic C57BI/6 mice, day 1 after challenge, 150 μg mAb i.p. 1 day prior and 1 day after challenge), the “estimated average log10 of bacterial counts in urine” value is reported as 1.31±0.5 log10. In addition, the “estimated log10 bacterial counts in urine” value in the assay with E. coli CFT073 [1] (non-diabetic C57BI/6 mice, day 3 after challenge, 150 μg mAb i.p.) is 0.99±0.4 log10. For the same substance, the “effect on bacterial counts in urine vs mock group” value in the assay with E. coli CFT073 [1] (non-diabetic mice, mAb 150 μg i.p. or LD antigen 15 μg s.c.) is reported as “significant decrease of bacterial counts in urine”; with E. coli CFT073 [9], “reduced bacterial load”. The substance further gave a biofilm reduction in the assay with E. coli UTI89 [2] (50 μg/ml mAb (FIG. 7B)) of 93%. Further, in the assay with E. coli UTI89 [2], the “effect on detachment of pre-formed biofilm” value is given as “effective dissolution of the biofilm”. In addition, the “effect on biofilm formation” value with E. coli UTI89 [3] is “prevented formation”. The “interference with the other inhibitory mAb's binding to FimH” value in the assay with FimH^wt:(186-201)FocH is listed as “strongly cross-interfere with each other's binding to FimH”. Further, the “reduction in bacteria recovered from bladder” value in the assay with E. coli UTI89 [4] is 83%. Further, in the assay with Klebsiella pneumoniae [5], the “effect on Klebsiella adhesion to RNaseB” value is recorded as “significantly reduced bacterial adhesion”. Further, the “difference in inhibitory potency (IC50) mAb926 vs mAb475” value in [6] was 32 fold. Moreover, in assay [6] (antibody at its KD concentration), the “inhibition of bacterial adhesion at its KD concentration” value is more than 50%. Besides, the “destabilization of pre-formed biofilm” value with Klebsiella pneumoniae [7] is listed as “significant (P=0.0005) destabilization of the biofilm”. Also, the “inhibition of biofilm formation” value in the assay with Klebsiella pneumoniae [8] was 76-86%.
Regarding “α-methyl-D-mannopyranoside [mannose, reference compound]”, the “effect on detachment of pre-formed biofilm” value in the assay on E. coli UTI89 [2] is listed as “neither mAb475 nor soluble mannose caused substantial detachment”. In the assay with E. coli UTI89 [3], the “effect on biofilm formation” value was “prevented formation”. Also, the “inhibition of biofilm formation” value in the assay with Klebsiella pneumoniae [8] is on record as 38-67%.
